Source: patent publication US12691084B2, “Pharmaceutical composition for preventing or treating bone diseases” (INDUSTRY FOUNDATION OF CHONNAM NATIONAL UNIVERSITY, priority 2019, dated 2026)

What was measured:
plasma proteins = assay: Plasma protein binding (PPB); assay type: in vitro ADME, Human; settings: for binding with plasma proteins: conclusion from ADME evaluation
Experimental: (§1) In order to analyze the drug metabolism of PMSA compound, ADME evaluation was requested to the Daegu-Gyeongbuk Advanced Medical industry Promotion Foundation (DGMIF). Metabolic stability of drugs using liver microsomes (microsomal stability), drug metabolism inhibitory ability by five CYP450 enzymes, plasma metabolism (plasma stability), plasma protein binding, and intestinal permeability of drugs (PAMPA, parallel artificial membrane permeability assay) were analyzed. […] Further, it was confirmed that the permeability resistance was excellent (see Table 3 below). On the other hand, for one of PMSA derivatives, that is, 2-(N-(3,5-dimethylphenyl)methylsulfinamido)-N-(2 (phenylthio)phenyl)propanamide (#25-D5), intestinal permeability of the drug (PAMPA) was not measured.

[1] = tested on: osteoclast-specific genes (CatK, NFATc1, DC-STAMP, OC-STAMP, Acp5); assay: qRT-PCR of osteoclast-specific gene mRNA expression; assay type: cell-based, mouse; settings: for mRNA expression of DC-STAMP / mRNA expression of OC-STAMP / mRNA expression of cathepsin K (CtsK): day 3 of differentiation, compared to control (Ctrl) without PMSA treatment
Experimental: Further, in order to confirm the expression degree of the osteoclast-specific gene, an mRNA expression level was measured by RT-PCR in the PMSA compound-treated cells. RNA was isolated from the cells differentiated into osteoclasts using an RNeasy kit (Qiagen, 74106), quantified using a spectrophotometer, followed by synthesizing 0.5 μg of RNA using reverse transcriptase (Takara, RR037 A). The synthesized cDNA was subjected to qRT-PCR with a QuantStudio 3 real-time PCR system (Applied Biosystems) using Power SYBR Green […] (Applied Biosystems).
All qPCR experiments were performed in duplicate, and 18S was used as a control. The ddCT method was used for data analysis.
In order to further confirm the inhibitory effect of PSTP-3,5-Me on osteoclast differentiation, the expression levels genes related to osteoclast production were investigated. mRNA expression of specific markers associated with osteoclast production was measured by RT-PCR in 0 or 6 μM PSTP-3,5-Me-treated cells.
For qRT-PCR, total RNA was extracted from BMMs using a TRIzol reagent (Thermo Fisher Scientific, MA, USA). Complementary DNA was synthesized from the total RNA using a Verso cDNA synthesis kit (Thermo Fisher Scientific, MA, USA). Thereafter, quantitative PCR (qPCR) was performed using the QuantStudio 3 real-time PCR system (Applied Biosystems, CA, USA) together with Power SYBR Green PCR Master Mm (Applied Biosystems, CA, USA).

CYP2D6 = CYP2D6 (Homo sapiens, UniProt P10635); assay: CYP450 drug metabolism inhibition, 2D6; assay type: in vitro ADME; settings: criterion remaining activity >50%
Sequence of CYP2D6 (P10635 whole entry): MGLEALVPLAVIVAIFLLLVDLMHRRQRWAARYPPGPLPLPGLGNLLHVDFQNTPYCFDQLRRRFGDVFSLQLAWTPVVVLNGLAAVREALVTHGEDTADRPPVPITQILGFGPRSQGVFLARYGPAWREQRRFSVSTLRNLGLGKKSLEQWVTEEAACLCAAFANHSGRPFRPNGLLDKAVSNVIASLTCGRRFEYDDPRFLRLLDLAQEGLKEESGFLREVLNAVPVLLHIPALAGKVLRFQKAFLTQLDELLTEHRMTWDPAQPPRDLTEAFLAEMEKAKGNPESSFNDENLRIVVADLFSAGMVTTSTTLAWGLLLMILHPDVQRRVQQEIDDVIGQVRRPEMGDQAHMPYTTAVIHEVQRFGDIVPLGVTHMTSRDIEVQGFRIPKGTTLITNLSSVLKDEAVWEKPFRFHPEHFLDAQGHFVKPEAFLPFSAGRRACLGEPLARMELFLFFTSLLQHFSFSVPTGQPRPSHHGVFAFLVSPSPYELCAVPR
Experimental: as §1

CYP2C19 = CYP2C19 (Homo sapiens, UniProt P33261); assay: CYP450 drug metabolism inhibition, 2C19; assay type: in vitro ADME; settings: criterion remaining activity >50%
Sequence of CYP2C19 (P33261 whole entry): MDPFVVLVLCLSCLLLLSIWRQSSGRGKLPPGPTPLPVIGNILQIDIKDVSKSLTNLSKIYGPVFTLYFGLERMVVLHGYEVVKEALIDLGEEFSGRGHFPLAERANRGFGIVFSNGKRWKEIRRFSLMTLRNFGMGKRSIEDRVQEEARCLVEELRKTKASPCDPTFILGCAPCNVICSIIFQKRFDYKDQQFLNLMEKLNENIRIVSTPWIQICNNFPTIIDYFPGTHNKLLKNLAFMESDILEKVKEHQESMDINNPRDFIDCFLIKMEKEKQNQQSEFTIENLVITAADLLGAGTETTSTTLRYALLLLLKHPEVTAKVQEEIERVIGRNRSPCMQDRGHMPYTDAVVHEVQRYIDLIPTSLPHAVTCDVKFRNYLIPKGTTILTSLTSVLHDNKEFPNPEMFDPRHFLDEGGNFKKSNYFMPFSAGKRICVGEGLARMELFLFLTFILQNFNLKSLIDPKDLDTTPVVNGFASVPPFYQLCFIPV
Experimental: as §1

Microsomal stability (H) = assay type: in vitro ADME, human; settings: H of H/M; criterion >60%
Experimental: as §1

[2] = tested on: monocytes isolated from mouse bone marrow treated with RANKL; assay: Osteoclast differentiation inhibition, TRAP staining and assay; assay type: cell-based; settings: for cells differentiated into osteoclasts (differentiation area ratio per total area): 10 μM, RANKL, Image J; for cells differentiated into osteoclasts (differentiation area ratio per total area) / osteoclast differentiation inhibitory ability: TRAP staining; for osteoclast differentiation inhibitory ability: area of differentiated osteoclasts
Experimental: Macrophages were isolated from bone marrow of 8-week old C57BL/6J mice, and seeded on a 96-well plate in an amount of 1×10^4 cells per well, followed by treating the cells with osteoclast differentiation factors M-CSF and RANKL at 30 ng/ml and 50 ng/ml, respectively. At the same time, the compounds were used for treatment, followed by culturing the cells for 3 to 4 days. Thereafter, differentiation influence was evaluated through TRAP staining and cell counting. Specific experimental procedures and results are as follows.
The bone marrow of a 10-week-old female mouse was isolated from the hip bone, femur and tibia, and incubated in α-MEM medium (Gibco, 12561-056, 10% fetal bovine serum, 1% penicillin/streptomycin) containing macrophage colony stimulating factor (M-CSF, PeproTech, 315-02, 30 ng/ml) for […] so as to isolate only monocytes. The isolated monocytes were treated with receptor activator of nuclear factor kappa B ligand (RANKL, PeproTech, 315-11, 50 ng/ml) to induce osteoclast differentiation. When a morphology of fused multinuclear cells began to appear from day 3 after treatment with RANKL, the cells were differentiated into giant multinuclear cells for 4 to 6 days (see FIG. 1), and dead by cell apoptosis after 6 days.
During RANKL treatment, each PMSA compound was also used for treatment, followed by culturing the cells for 3 or 5 days to confirm the effects of inhibiting osteoclast differentiation.
1×10^4 monocytes isolated from mouse bone marrow were put into a 96-well plate and treated with RANKL and PMSA together to confirm the effect of each PMSA on osteoclast differentiation ability. Each PMSA was used for treatment by concentration. The activity of tartrate-resistant acid phosphatase (TRAP), which has increased expression during osteoclast differentiation, was confirmed using a TRAP activity assay kit (Cosmo Bio, PMC-AK04F-COS) (see FIG. 2).
Further, after staining, the multinuclear cells formed during osteoclast differentiation were observed under a microscope, and each well was photographed and a differentiation area ratio per total area was determined using Image J software. […] Specifically, at 10 μM concentration, cells were differentiated into osteoclasts by 30% when using #25 (PMSA-3-Ac), similarly, 74% using #25-C (PMSA-Ph), 63% using #25-N (PMSA-PhN), 41% using #25-PhO (PMSA-O), and only 1% using #25-D12 (PMSA-2-OMe-5-Cl), respectively. […]

Plasma stability = assay type: in vitro ADME
Experimental: as §1

Microsomal stability (M) = assay type: in vitro ADME, mouse; settings: M of H/M; criterion >60%
Experimental: as §1

[3] = PAMPA, parallel artificial membrane permeability assay; assay type: in vitro ADME; settings: for Papp: PAMPA, criterion >40, read-out: PAMPA (>40) Pe; for permeability resistance: conclusion from ADME evaluation
Experimental: as §1

[4] = ADME evaluation (DGMIF), overall conclusion on toxicity; assay type: in vitro ADME; settings: conclusion from ADME evaluation
Experimental: as §1

NFATc1 = assay: Intranuclear migration of transcription factors, western blotting of nuclear and cytoplasmic proteins; assay type: cell-based, mouse; settings: osteoclasts differentiated by RANKL for 3 days
Text: In order to further confirm the inhibitory effect of the PMSA compound on osteoclast differentiation, the intranuclear migration of transcription factors NFATc1 and NF-kB and the expression degree of osteoclast-specific genes regulated by the transcription factors were investigated.
First, in order to confirm the intranuclear migration of transcription factors, osteoclasts differentiated by RANKL for 3 days were separated into nuclear protein and cytoplasmic protein using a NE-PER kit (ThermoFisher scientific 78833). Then, the expression of each of NFATc1 and NF-kB in each organelle was investigated through western blotting.

[5] = 6 μM compared to control (0 μM)
[6] = compared to group in which osteoclasts are normally differentiated

| PPB Human (%, bound) (plasma proteins) | CYP 2D6 remaining activity (CYP2D6) [%] | CYP 2C19 remaining activity (CYP2C19) [%] | Microsomal stability (>60%) H (Microsomal stability (H)) [%] | Plasma S Human 30 min (% Remaining) (Plasma stability) | Plasma S Human 120 min (% Remaining) (Plasma stability) | Microsomal stability (>60%) M (Microsomal stability (M)) [%] | binding with plasma proteins (plasma proteins) | Papp [3] [×10⁻⁶ cm/s] | permeability resistance [3] | SMILES | mRNA expression of DC-STAMP [1] | mRNA expression of OC-STAMP [1] | mRNA expression of cathepsin K (CtsK) [1] | toxicity [4] | cells differentiated into osteoclasts (differentiation area ratio per total area) [2] [%] | osteoclast differentiation inhibitory ability [2] | NFATc1 expression in the nucleus (NFATc1) | also measured |
| --- | --- | --- | --- | --- | --- | --- | --- | --- | --- | --- | --- | --- | --- | --- | --- | --- | --- | --- |
| 99.8 %, bound | 87.3 | 21.7 | 10.9 | 100/100 % Remaining | 100/100 % Remaining | 14.7 |  |  |  | Cc1cc(C)cc(N([C@@H](C)C(=O)Nc2ccccc2Sc2ccccc2)S(C)(=O)=O)c1 [#25-D5, N^2-(3,5-dimethylphenyl)-N^2-(methylsulfonyl)-N-[2-(phenylthio)phenyl]alanineamide] |  |  |  |  |  |  |  | Acp5 expression level [1, 5]: slightly decreased; CatK expression degree [1, 5]: significantly decreased; DC-STAMP expression level [1, 5]: decreased on day 1; NFATc1 expression degree [1, 5]: significantly decreased; OC-STAMP expression level [1, 5]: decreased on day 1; differentiation area [2, 6]: significant reduction; giant multinuclear cells [2, 6]: significant reduction; number of osteoclasts [2, 6]: significant reduction |
| 99.8 %, bound | 85.5 | 6.3 | 13.9 | 98.3 % Remaining | 97.8 % Remaining | 21.7 | good | 49 ± 2 | excellent | COc1ccc(Cl)cc1N(CC(=O)Nc1ccccc1Sc1ccccc1)S(C)(=O)=O [#25-D12, 2-(N-(5-chloro-2-methoxyphenyl)methylsulfonamido)-N-(2-(phenylthio)phenyl)acetamide] | decrease | decrease | decrease | low toxicity | 1 | excellent | less expressed in the nucleus |  |
| 98.4 %, bound | 80.4 | 6.2 | 8.7 | 87.1 % Remaining | 97.3 % Remaining | 8.0 | good | 59.4 ± 1.6 | excellent | CC(=O)c1cccc(N(CC(=O)Nc2ccccc2Sc2ccccc2)S(C)(=O)=O)c1 [#25, 2-(N-(3-acetylphenyl)methylsulfonamido)-N-(2-(phenylthio)phenyl)acetamide] | decrease | decrease | decrease | low toxicity | 30 | excellent | less expressed in the nucleus |  |
